Measured values taken from ChEMBL document CHEMBL5335789, “Tea-break with epigallocatechin gallate derivatives - Powerful polyphenols of great potential for medicine” (Eur J Med Chem, 2023).

Columns and labels:
MCF7 [1] = experiment: Antiproliferative activity against human MCF7 cells assessed as reduction in cell viability incubated for 72 hrs by MTT assay; format: functional, cell-based; details: MCF7, 72 h
HCT-116 = experiment: Antiproliferative activity against human HCT-116 cells assessed as reduction in cell viability incubated for 24 hrs by MTT assay; format: functional, cell-based; details: HCT-116, 24 h
MDA-MB-231 [2] = experiment: Cytotoxicity against human MDA-MB-231 cells assessed as cell growth inhibition incubated for 48 hrs by SRB assay; format: functional, cell-based; details: MDA-MB-231, 48 h
U-937 [3] = experiment: Antiproliferative activity against human U-937 cells measured upto 72 hrs; format: functional, cell-based; details: U-937, 72 h
U-937 [4] = experiment: Antiproliferative activity against human U-937 cells assessed as cell growth inhibition measured after 72 hrs; format: functional, cell-based; details: U-937, 72 h
U-266 = experiment: Anticancer activity against human U-266 cells assessed as inhibition of cell growth; format: functional, cell-based
[5] = Inhibition of Streptococcus sobrinus glycosyl transferase
Jurkat = experiment: Antiproliferative activity against human Jurkat T cells assessed as inhibition of cell growth at 50 uM incubated for 24 hrs relative to control; format: functional; set-up: scale not given: the % may be the effect or the level left
MDA-MB-231 [6] = experiment: Anticancer activity against human MDA-MB-231 cells assessed as reduction in cell viability measured after 72 hrs by MTT assay; format: functional
LNCaP = experiment: Antiproliferative activity against human LNCaP assessed as reduction in cell viability incubated for 72 hrs by MTT assay; format: functional, cell-based
HL-60 = experiment: Cytotoxicity against human HL-60 cells assessed as reduction in cell growth incubated for 48 hrs by MTT assay; format: functional, cell-based; details: HL-60, 48 h
BEAS-2B = experiment: Cytotoxicity against human BEAS-2B assessed as reduction in cell viability incubated for 72 hrs by MTT assay; format: functional, cell-based
SMMC-7721 = experiment: Cytotoxicity against human SMMC-7721 cells assessed as reduction in cell viability incubated for 48 hrs by MTT assay; format: functional, cell-based; details: SMMC-7721, 48 h
MCF7 [7] = experiment: Cytotoxicity against human MCF7 cells assessed as reduction in cell viability incubated for 48 hrs by MTT assay; format: functional, cell-based; details: MCF7, 48 h
A549 [8] = experiment: Cytotoxicity against human A549 cells assessed as reduction in cell viability incubated for 48 hrs by MTT assay; format: functional, cell-based; details: A549, 48 h
NCI-H292 = experiment: Antiproliferative activity against human NCI-H292 cells expressing wild type EGFR assessed as reduction in cell viability incubated for 48 hrs by MTT assay; format: functional, cell-based; details: NCI-H292, 48 h
A549 [9] = experiment: Antiproliferative activity against human A549 cells expressing wild type EGFR assessed as reduction in cell viability incubated for 48 hrs by MTT assay; format: functional, cell-based; details: A549, 48 h
NCI-H441 = experiment: Antiproliferative activity against human NCI-H441 cells expressing wild type EGFR assessed as reduction in cell viability incubated for 48 hrs by MTT assay; format: functional, cell-based; details: NCI-H441, 48 h
[10] = Antiproliferative activity against human NCI-H1781 cells expressing wild type EGFR assessed as reduction in cell viability incubated for 48 hrs by MTT assay; format: functional, cell-based; details: NCI-H1781, 48 h

COc1cc(OC)c2c(c1)OC(c1ccccc1)[C@H](OC(=O)c1ccc(OC(C)=O)c(CC=C(C)C)c1)C2 (some centres undefined)
IC50 (MCF7 [1]): 3.99 µM

O=C(O[C@@H]1Cc2c(O)cc(O)cc2O[C@@H]1c1cc(O)c(=O)c2c(O)c(O)cc([C@H]3Oc4cc(O)cc(O)c4C[C@H]3OC(=O)c3cc(O)c(O)c(O)c3)c2c1)c1cc(O)c(O)c(O)c1 [THEAFLAVIN DIGALLATE]
IC50 (HCT-116): 120 µM

O=C(Oc1cc(OC(=O)c2cc(O)c(O)c(O)c2)c2ccccc2c1)c1cc(O)c(O)c(O)c1
IC50 (MDA-MB-231 [2]): 77 µM

O=C(Nc1c(-c2ccc(O)c(O)c2)oc2ccccc2c1=O)c1ccc(O)c(O)c1
IC50 (U-937 [3]): 0.38 µM
IC50 (U-937 [4]): 37 µM

COc1cc([C@H]2Oc3cccc(OC)c3C[C@H]2OC(=O)c2cc(O)c(O)c(O)c2)cc(O)c1O
IC50 (U-266): 0.8 µM

O=c1c(O)cc([C@H]2Oc3cc(O)cc(O)c3C[C@H]2O)cc2cc(O)c(O)c(O)c12
IC50 [5]: 14 µM

O=C(O[C@@H]1Cc2c(O)cc(O)cc2O[C@@H]1c1cc(O)c(=O)c2c(O)c(O)c(O)cc2c1)c1cc(O)c(O)c(O)c1
IC50 [5]: 11 µM

CC(=O)Oc1cc(OC(C)=O)c2c(c1)O[C@H](c1cc(OC(C)=O)c(OC(C)=O)c(OC(C)=O)c1)[C@H](OC(=O)c1ccc(F)c(F)c1)C2
Activity (Jurkat): 90%
Activity (MDA-MB-231 [6]): 33%

O=C(O[C@@H]1Cc2c(F)cc(F)cc2O[C@@H]1c1ccc(O)c(O)c1)c1cc(O)c(O)c(O)c1
IC50 (LNCaP): 13 µM

CCCC(=O)OC[C@H]1O[C@@H](Oc2c(O)cc(C(=O)O[C@@H]3Cc4c(O)cc(O)cc4O[C@@H]3c3cc(O)c(O)c(O)c3)cc2O)[C@H](OC(=O)CCC)[C@@H](OC(=O)CCC)[C@H]1OC(=O)CCC
IC50 (HL-60): 22.9 µM
IC50 (BEAS-2B): 40 µM
IC50 (SMMC-7721): 22.9 µM
IC50 (MCF7 [7]): 22.9 µM
IC50 (A549 [8]): 22.9 µM

CC(=O)Oc1cc(OC(C)=O)c2c(c1)O[C@H](c1cc(OC(C)=O)c(OC(C)=O)c(OC(C)=O)c1)[C@H](OC(=O)c1cccc(F)c1)C2
Activity (MDA-MB-231 [6]): 70%

O=C(O[C@@H]1Cc2c(O)cc(O)cc2O[C@@H]1c1cc(O)c(=O)c2c(O)c(O)cc([C@H]3Oc4cc(O)cc(O)c4C[C@H]3O)c2c1)c1cc(O)c(O)c(O)c1 [THEAFLAVIN MONOGALLATES]
IC50 [5]: 7.7 µM

CCOc1cccc(C(=O)O[C@H]2COc3cc(OC)cc(OC)c3C2)c1
IC50 (MCF7 [1]): 8.19 µM

O=C(O[C@@H]1Cc2c(O)cc(O)cc2O[C@@H]1c1cc(O)c(O)c(O)c1)c1cc(O)c(OCc2cn([C@H]3O[C@H](CO)[C@@H](O)[C@H](O)[C@H]3O)nn2)c(O)c1
IC50 (NCI-H292): 30 µM
IC50 (A549 [9]): 30 µM
IC50 (NCI-H441): 30 µM
IC50 [10]: 30 µM

O=C(Oc1cc(O)cc2ccccc12)c1cc(O)c(O)c(O)c1
IC50 (MDA-MB-231 [2]): 79 µM
